Source: patent US6653309B1, “Inhibitors of IMPDH enzyme technical field of the invention” (Vertex Pharmaceuticals Incorporated, priority 1999, dated 2003)

These compounds were tested against IMPDH human type II (Homo sapiens, UniProt P12268) (assay: IMPDH Activity Inhibition Assay). Settings: spectrophotometric NADH formation at 340 nm, 37° C., tight-binding equation of Henderson.
Format: biochemical
Method: IMP dehydrogenase activity was assayed following an adaptation of the method first reported by Magasanik. [B. Magasanik et al., J. Biod. Chem., 226, p. 339 (1957), the disclosure of which is herein incorporated by reference]. Enzyme activity was measured spectrophotometrically, by monitoring the increase in absorbance at 340 nm due to the formation of NADH (ε340 is 6220 M^−1 cm^−1). The reaction mixture contained 0.1 M Tris pH 8.0, 0.1 M KCl, 3 mM EDTA, 2 mM DTT, […] and enzyme (IMPDH human type II) at a concentration of 15 to 50 nM. This solution is incubated at 37° C. for 10 minutes. The reaction is started by adding NAD to a final concentration of […] and the initial rate is measured by following the linear increase in absorbance at 340 nm for 10 minutes. For reading in a standard spectrophotometer (path length 1 cm) the final volume in the cuvette is 1.0 ml. The assay has also been adapted to a 96 well microtiter plate format; in this case the concentrations of all the reagents remain the same and the final volume is decreased to 200 μl.
For the analysis of inhibitors, the compound in question is dissolved in DMSO to a final concentration of 20 mM and added to the initial assay mixture for preincubation with the enzyme at a final volume of 2-5% (v/v). The reaction is started by the addition of NAD, and the initial rates measured as above. Ki determinations are made by measuring the initial, velocities in the presence of varying amounts of inhibitor and fitting the data using the tight-binding equation of Henderson (Henderson, P. J. F. (1972) Biochem. J. 127, 321].

Structure (SMILES)	Ki [µM]
COc1ccccc1NC(=O)c1cc2ccccc2cc1O [Compound 100]	< 10
CCCC(=O)Oc1cc2ccccc2cc1C(=O)Nc1ccccc1OC [Compound 101]	10 to 20
COc1cc(NC(=O)c2cccc(CNC(=O)O[C@H]3CCOC3)c2)ccc1-c1cnco1 [Compound 102]	< 10
COc1ccccc1NC(=O)c1cc2cc(Br)ccc2cc1OC(C)=O [Compound 104]	10 to 20
COc1ccccc1N(C)C(=O)c1cc2ccccc2cc1O [Compound 105]	10 to 20
C=CCN(C(=O)c1cc2ccccc2cc1O)c1ccccc1OC [Compound 106]	10 to 20
COc1ccccc1N(Cc1ccccc1)C(=O)c1cc2ccccc2cc1O [Compound 107]	10 to 20
COc1ccccc1NC(=O)c1ccccc1OC [Compound 108]	10 to 20
COc1cc(NC(=O)c2cccc(CCNC(=O)O[C@H]3CCOC3)c2)ccc1-c1cnco1 [Compound 109]	< 10
COc1ccccc1NC(=O)c1ccc2ccccc2c1 [Compound 110]	10 to 20
COc1ccccc1NC(=O)c1cc2ccccc2cc1OC(=O)c1ccccc1 [Compound 111]	< 10
COc1ccccc1NC(=O)c1cc2ccccc2cc1OC(=O)C(C)(C)C [Compound 112]	10 to 20
CCCC(=O)Oc1cc2ccccc2cc1C(=O)Nc1ccc(C#N)c(OC)c1 [Compound 113]	< 10
CCCC(=O)Oc1cc2ccccc2cc1C(=O)Nc1ccc(-c2cnco2)c(OC)c1 [Compound 114]	< 10
COc1ccccc1NCc1cc2cc(Br)ccc2cc1O [Compound 115]	< 10
CCCC(=O)Oc1cc2ccccc2cc1C(=O)Nc1cccc(OC)c1 [Compound 116]	> 20
CCCC(=O)Oc1cc2ccccc2cc1C(=O)Nc1ccc(OC)cc1 [Compound 117]	> 20
CCCC(=O)Oc1cc2ccccc2cc1C(=O)Nc1ccc(C)cc1 [Compound 118]	10 to 20
COc1cccc(NC(=O)c2cc3ccccc3cc2O)c1 [Compound 119]	> 20
COc1ccc(NC(=O)c2cc3ccccc3cc2O)cc1 [Compound 120]	10 to 20

Structure (SMILES)	Ki [µM]
Cc1ccc(NC(=O)c2cc3ccccc3cc2O)cc1 [Compound 121]	10 to 20
Cc1cccc(NC(=O)c2cc3ccccc3cc2O)c1 [Compound 122]	10 to 20
O=C(Nc1cccc(C(F)(F)F)c1)c1cc2ccccc2cc1O [Compound 123]	< 10
O=C(Nc1ccc(C(F)(F)F)cc1)c1cc2ccccc2cc1O [Compound 124]	< 10
COc1cc(NC(=O)c2cc3ccccc3cc2O)ccc1C#N [Compound 125]	10 to 20
COc1cc(NC(=O)c2cc3ccccc3cc2O)ccc1-c1cnco1 [Compound 126]	< 10
CCC(=O)Oc1cc2ccc(Br)cc2cc1C(=O)Nc1ccccc1OC [Compound 127]	< 10
O=C(Nc1ccccc1C(F)(F)F)c1cc2ccccc2cc1O [Compound 128]	10 to 20
O=C(Nc1ccccc1Br)c1cc2ccccc2cc1O [Compound 129]	10 to 20
O=C(Nc1cccc(Br)c1)c1cc2ccccc2cc1O [Compound 130]	10 to 20
O=C(Nc1ccc(Br)cc1)c1cc2ccccc2cc1O [Compound 131]	10 to 20
Cc1ccccc1NC(=O)c1cc2ccccc2cc1O [Compound 132]	10 to 20
COc1ccccc1NC(=O)c1ccccc1 [Compound 133]	10 to 20
COc1ccccc1NC(=O)c1ccc2c(c1)OCO2 [Compound 134]	10 to 20
O=C(Nc1ccccc1OC(F)(F)F)c1cc2ccccc2cc1O [Compound 135]	10 to 20
O=C(Nc1ccc(OC(F)(F)F)cc1)c1cc2ccccc2cc1O [Compound 136]	10 to 20
COc1ccccc1NC(=O)c1cc2ccccc2cc1NC(=O)C(F)(F)F [Compound 137]	10 to 20
COc1ccccc1C(=O)Nc1cc2ccccc2cc1OC(=O)c1ccccc1OC [Compound 138]	< 10
COc1cc(OC)c(NC(=O)c2cc3ccccc3cc2O)cc1Cl [Compound 171]	10 to 20

The remaining lines, values ahead:

Ki [µM]	Structure (SMILES)
< 10	COc1ccccc1C(=O)Nc1cc2ccccc2cc1O [Compound 139]
< 10	C=CCOc1cc2ccc(Br)cc2cc1C(=O)Nc1ccccc1OC [Compound 140]
< 10	COc1ccccc1NC(=O)c1cc2cc(Br)ccc2cc1OCc1ccccc1 [Compound 141]
10 to 20	COc1ccccc1NC(=O)c1cc2ccccc2cc1N [Compound 142]
< 10	O=C(Nc1cccc(OC(F)(F)F)c1)c1ccc2ccccc2c1 [Compound 143]
10 to 20	N#Cc1ccccc1NC(=O)c1cc2ccccc2cc1O [Compound 144]
10 to 20	N#Cc1cccc(NC(=O)c2cc3ccccc3cc2O)c1 [Compound 145]
10 to 20	COc1ccccc1NC(=O)c1ccc2ccccc2c1O [Compound 146]
< 10	COc1ccccc1NC(=O)c1ccccc1O [Compound 147]
10 to 20	CCCCC(=O)Oc1cc2ccccc2cc1C(=O)Nc1ccccc1OC [Compound 148]
10 to 20	COc1ccccc1N(C)C(=O)c1cc2cc(Br)ccc2cc1O [Compound 149]
10 to 20	COc1ccc(C(=O)Nc2ccccc2OC)c(O)c1 [Compound 150]
< 10	COc1ccccc1N(C)Cc1cc2cc(Br)ccc2cc1O [Compound 151]
10 to 20	COc1ccccc1NC(=O)c1cccc(-c2ccccc2)c1O [Compound 152]
< 10	CCCCC(=O)Oc1cc2ccc(Br)cc2cc1C(=O)Nc1ccccc1OC [Compound 153]
10 to 20	COc1ccc(-c2ccccc2)cc1NC(=O)c1cc2ccccc2cc1O [Compound 154]
10 to 20	O=C(Nc1ccccc1Cl)c1cc2ccccc2cc1O [Compound 155]
10 to 20	O=C(Nc1cccc(Cl)c1)c1cc2ccccc2cc1O [Compound 156]
10 to 20	COc1ccccc1NC(=O)c1cccc(OC)c1O [Compound 157]
10 to 20	CCS(=O)(=O)c1ccc(OC)c(NC(=O)c2cc3ccccc3cc2O)c1 [Compound 159]
10 to 20	COc1ccc(S(=O)(=O)C(F)F)cc1NC(=O)c1cc2ccccc2cc1O [Compound 160]
< 10	O=C(Nc1ccc(Cl)cc1)c1cc2ccccc2cc1O [Compound 161]
10 to 20	O=C(Nc1ccccc1F)c1cc2ccccc2cc1O [Compound 162]
10 to 20	O=C(Nc1cccc(F)c1)c1cc2ccccc2cc1O [Compound 163]
< 10	CCC(C)c1ccc(OC)c(NC(=O)c2cc3ccccc3cc2O)c1 (centres unmarked) [Compound 164]

Ki [µM]	Structure (SMILES)
10 to 20	COc1ccc(C(N)=O)cc1NC(=O)c1cc2ccccc2cc1O [Compound 165]
10 to 20	O=C(Nc1ccc(F)cc1)c1cc2ccccc2cc1O [Compound 166]
10 to 20	CCOc1ccccc1NC(=O)c1cc2ccccc2cc1O [Compound 167]
10 to 20	CCOc1cccc(NC(=O)c2cc3ccccc3cc2O)c1 [Compound 168]
< 10	CSc1ccccc1NC(=O)c1cc2ccccc2cc1O [Compound 169]
< 10	COc1cc(NC(=O)c2cc3ccccc3cc2O)c(OC)cc1Cl [Compound 170]
< 10	COc1cc2c(cc1NC(=O)c1cc3ccccc3cc1O)oc1ccccc12 [Compound 172]
10 to 20	CSc1cccc(NC(=O)c2cc3ccccc3cc2O)c1 [Compound 173]
< 10	CSc1ccc(NC(=O)c2cc3ccccc3cc2O)cc1 [Compound 175]
10 to 20	COc1ccc(C(C)(C)C)cc1NC(=O)c1cc2ccccc2cc1O [Compound 177]
< 10	COc1ccc(C)cc1NC(=O)c1cc2ccccc2cc1O [Compound 178]
10 to 20	COc1ccc(OC)c(NC(=O)c2cc3ccccc3cc2O)c1 [Compound 179]
10 to 20	COc1ccc(C(F)(F)F)cc1NC(=O)c1cc2ccccc2cc1O [Compound 180]
< 10	COc1cc(Cl)c(C)cc1NC(=O)c1cc2ccccc2cc1O [Compound 181]
< 10	O=C(Nc1ccccc1Oc1ccccc1)c1cc2ccccc2cc1O [Compound 183]
10 to 20	COc1cccc(NC(=O)c2cc3ccccc3cc2O)c1OC [Compound 184]
< 10	O=C(Nc1ccc(Oc2ccccc2)cc1)c1cc2ccccc2cc1O [Compound 185]
10 to 20	COc1ccc(NC(=O)c2cc3ccccc3cc2O)c(OC)c1 [Compound 186]
10 to 20	COc1ccc(NC(=O)c2cc3ccccc3cc2O)cc1OC [Compound 187]
10 to 20	COc1cc(NC(=O)c2cc3ccccc3cc2O)cc(OC)c1 [Compound 188]
> 20	O=C(Nc1ccccc1O)c1cc2ccccc2cc1O [Compound 190]
> 20	COc1ccc(C)cc1NC(=O)c1ccc2ccccc2c1O [Compound 191]
> 20	O=C(Nc1ccccc1O)c1ccc2ccccc2c1O [Compound 192]
10 to 20	O=C(Nc1ccccc1Oc1ccccc1)c1ccc2ccccc2c1O [Compound 193]
> 20	COc1ccc(C)cc1NC(=O)c1ccccc1OC [Compound 194]
